Consider 85 molecules from a melting point compilation (Tetko et al.; mined from patent text by program, amines drawn as free bases though some values may be those of a salt).

Residues, ends and D or L forms follow the SMILES beside them. *: point of attachment. Boc = CC(C)(C)OC(=O)*; NHNH2 = NN* A value given as a limit tells only on which side of the number the result lay.

By melting point is commonly meant the temperature, or range, at which the solid turns liquid. The molecule `CCc1nccn1-c1ccc(NC(=O)c2ccc(Cl)cc2)cc1` showed a melting point of 265 to 267 °C.

For the molecule `N#Cc1c(-c2ccc(Cl)c(Cl)c2)cc(C2CC2)[nH]c1=O`, the melting point was in the range of 290 to 295 °C.

As to `COc1ccc(CCNS(=O)(=O)c2ccc(N)cc2)cc1`, the melting point lay within 144 to 146 °C.

The molecule `COC(=O)c1cc(CBr)cc(CBr)c1` yielded a melting point of 64 to 70 °C.

For the molecule `O=c1ccoc2cc(OCCCCl)ccc12`, the melting point lay in the range of 72 to 73 °C.

In turn, `CC(C)[C@H](NC(=O)OCc1ccccc1)C(=O)N(CC(=O)O)C1CCCCCC1` came in with a melting point of 48 to 51 °C.

As for `CCCCOC(=O)c1ccc(Nc2ncc(C(=O)OCC)c(=O)[nH]2)cc1`, the melting point is 281 to 283 °C.

`O=C(Nc1ccc2cc(CN3CCCC3)ccc2c1)c1ccc(-c2ccc(Cl)cc2)cc1` displayed a melting point of 214 to 217 °C.

Turning to `CC1=C(C(=O)Nc2ccccn2)C(c2ccccc2Cl)C(C(=O)OCCCCn2c(C)nc3cnccc32)=C(c2ccc(F)cc2)N1` (stereo not given), the melting point is 129 to 132 °C.

`CS(=O)(=O)O[C@H]1CCNC1=O` yielded a melting point of 122 to 124 °C.

Regarding `CCOC(=O)c1ccc(NS(C)(=O)=O)c(Oc2ccc(F)cc2F)c1`, the melting point fell in the range of 111 to 113 °C.

Molecule `CCCCCCCCCCCCCCCCCCOc1cccc(N(CC(=O)O)CC(=O)O)c1` returned a melting point of 130 to 133 °C.

The molecule `COC(=O)COc1ccc2cc(CNC(=O)OC(C)(C)C)ccc2c1Br` displayed a melting point of 96 to 100 °C.

As to `CC1(CN2CCC(n3c(=O)[nH]c4ccccc43)CC2)OCc2ccccc2-n2cccc21` (stereo not given), the melting point lay within 199 to 201 °C.

`OC(CCc1cccnc1)COc1ccc(-c2ccccc2)cc1` (stereo not given) returned a melting point of 83 to 86 °C.

Take `O=C(O)Cc1c(-c2ccc(Cl)cc2)nn(-c2ccccc2)c1-c1ccc(Cl)cc1`: the melting point fell in the range of 204 to 206 °C.

Take `CCOC(=O)C(=O)CC(=O)c1cn(Cc2cccc(F)c2)c2ccccc2c1=O`: the melting point lay in the range of 174 to 175 °C.

In the case of `CCCn1c(=O)c2c(nc(C=Cc3cc(OC)c(OC)c(OC)c3S(N)(=O)=O)n2C)n(CCC)c1=O`, the melting point lay within 243 to 245 °C.

The molecule `Cc1ccc(S(=O)(=O)NC(=S)Nc2cnccc2N)cc1` gave a melting point of 185 to 187 °C.

Molecule `COc1ccc(-c2cncc(OC3SCC(O)C(O)C3O)c2)cn1` (stereo not given) displayed a melting point of 189 °C.

`O=c1[nH][nH]c(=O)c2c(O)c3c(Cl)c(Cl)c(Cl)cc3nc12` gave a melting point of 123 to 124 °C.

`CCn1cc(-c2cccc(Cl)c2)c(=O)n1-c1cccc(C(F)(F)F)c1`: the melting point is 113 to 114 °C.

The molecule `CC(C)=CCn1c(=O)sc2c(=O)[nH]c(N)nc21` displayed a melting point of 290 to 292 °C.

Consider `C=CCc1ccc2oc(C=CC(=O)OCC)c(C)c2c1O`, for which the melting point fell in the range of 125 to 127 °C.

`COC(=O)COc1ccc(F)c2c1c1c(n2Cc2ccccc2)CCCC1C(N)=O` (stereo not given) displayed a melting point of 183 to 185 °C.

`OCCOc1cccc2cccnc12` came in with a melting point of 82 to 84 °C.

`CC(C)CS(=O)(=O)N1C[C@@H](C)C[C@H](Nc2ncccc2-c2cnc3[nH]ccc3n2)C1` came in with a melting point of 215 to 218 °C.

For the molecule `CCCCCN(CCC12CC3CC(CC(C3)C1)C2)C(=O)NCC(C)(C)Cc1ccncc1`, the melting point lay within 82.5 to 84.9 °C.

For the molecule `NC(=O)CCN1CCN(C2Cc3cc(Cl)ccc3Sc3cc(F)ccc32)CC1` (stereo not given), the melting point fell in the range of 179 to 182 °C.

Regarding `C#CCOc1cc(-n2c(C#N)c(C#N)n(CCC)c2=O)c(F)cc1Cl`, the melting point was 164 to 166 °C.

With `COc1ccc(C2=NN(C3CCN(C(=O)CN4C(=O)CCC4=O)CC3)C(=O)C(C)(C)C2)cc1OC`, the melting point lay within 177 to 179 °C.

In turn, `COC(=O)C(=C(C)C)N1C(=O)[C@H](N2C(=O)c3ccccc3C2=O)[C@H]1Cl` yielded a melting point of 122 to 125 °C.

`CC(=O)c1ccccc1-c1noc2ccccc12` gave a melting point of 108 °C.

On to `O=c1[nH]cc(Cc2cccnc2)cc1[N+](=O)[O-]`, for which the melting point was 216 to 217 °C.

Molecule `CCOC(=O)COc1ccc(Cn2c(-c3ccc(OC4CCCC4)cc3)c(C)c3cc(OCc4ccccc4)ccc32)cc1` gave a melting point of 96 to 98 °C.

With `O=C(O)COc1ccc(C(=O)c2ccc([N+](=O)[O-])cc2)c(Cl)c1Cl`, the melting point was in the range of 172 to 175 °C.

For `O=C1Nc2ccccc2OCC1(Cl)Cl`, the melting point is 170 to 174 °C.

`O=C1CCCC2=C1C(c1ccncc1)C1=C(CCS1)N2` (stereo not given) registered a melting point above 250 °C.

`CC(C)C[C@H](NC(=O)OCc1ccccc1)C(=O)N[C@@H](C(C)C)[C@@H](O)c1c(-c2ccccc2)c1=O`: the melting point was in the range of 84 to 94 °C.

In turn, `COc1ccc(C(=O)N2c3ccccc3C(n3c4ccccc4c4ccccc43)CC2CCCCCN(C)C(C)=O)cc1OC` (stereo not given) displayed a melting point of 173 to 175 °C.

Take `OC1CC=CCC1N1CCN(C2CC=CCC2O)CC1` (stereo not given): the melting point lay in the range of 207 to 209 °C.

`O=Cc1cn(-c2cccnc2)c2ccccc12` came in with a melting point of 148 to 150 °C.

The molecule `CN(C=O)c1cc([N+](=O)[O-])cc([N+](=O)[O-])c1` returned a melting point of 93 to 94 °C.

The molecule `O=c1[nH]c(=O)n(COc2ccccc2)cc1F` came in with a melting point of 150 °C.

Regarding `N#CC(OC1OC2C(Br)C3CC1C2C3)c1cccc(Oc2ccccc2)c1` (stereo not given), the melting point turned out to be 65 °C.

Consider `CN(C(=O)c1cc(C(F)(F)F)cc(C(F)(F)F)c1)C(CC(=O)O)Cc1ccc2ccccc2c1` (stereo not given), for which the melting point fell in the range of 128 to 130 °C.

Consider `Cn1cnc(COc2nn3c(-c4ccccc4)nnc3cc2N2CCOCC2)n1`, for which the melting point is 205 to 206 °C.

On to `Cc1oc(-c2ccccc2)nc1Cc1cccc(CC2COC(C)(C)OC2)c1`, for which the melting point fell in the range of 85 to 87 °C.

`CCn1c(=O)n(-c2ccc(-n3ccn4c5ccccc5nc34)cc2)c2ncccc21` displayed a melting point of 220 to 221 °C.

Molecule `O=C(Oc1cccc2c(OC(=O)c3ccc(O)cc3)c3c(OC(=O)c4ccc(O)cc4)cccc3cc12)c1ccc(O)cc1` showed a melting point of 326 °C.

In turn, `CC(C)(C)OC(=O)N1CCC(=CC(=O)NCc2ccc(F)c(F)c2)CC1` showed a melting point of 102 to 105 °C.

Molecule `NNC(=O)CCc1cccc(C(F)(F)F)c1` yielded a melting point of 80 to 81 °C.

In turn, `Cc1nc2n(c(=O)c1CCN1CCN(c3noc4c(C)cccc34)CC1)CCCS2` yielded a melting point of 170 °C.

The molecule `O=C(O)c1ccccc1C(=O)Nc1ccc(C(=O)N2CCCC(O)c3cc(Cl)ccc32)cn1` (stereo not given) came in with a melting point of 153 to 155 °C.

As for `Nc1ccc(-c2noc(-c3cnn4c(C(F)F)cc(-c5ccc(Cl)c(Cl)c5)nc34)n2)cn1`, the melting point was 279 °C.

The molecule `O=C(NCc1ccc(F)cc1)c1ccnc(N2CCN(Cc3ccncc3)C2=O)c1` had a melting point of 161 to 163 °C.

`NC(=O)CCSSCCC(N)=O` gave a melting point of 100 to 101 °C.

The molecule `CC(=O)Oc1ccc(-c2cnc(-c3ccccc3)[nH]c2=O)cc1OC(C)=O` came in with a melting point of 240 °C.

For `Cn1ccc(S(N)(=O)=O)n1`, the melting point lay within 156 to 158 °C.

In turn, `CC1(C)CCCN(C(=O)[C@H]2C[C@H](C(=O)O)[C@@H](c3ccccc3F)N2C(=O)CNC(=O)Nc2cccc(CC(=O)O)c2)C1` (racemic) displayed a melting point of 173 °C.

`COc1ccccc1-c1nc(N)c(C#N)nc1-c1ccc(=O)n(C(C)C)c1`: the melting point is 223 °C.

Molecule `O=C(O)[C@@H]1CC[C@H](n2nc(-c3c(-c4ccccc4)nn4ccccc34)ccc2=O)C(=O)C1` (relative stereo) had a melting point of 186 to 188 °C.

In the case of `CCCCCCCCCCCCCCCCOCCSCCOC(=O)N(Cc1ccccn1)C(C)=O`, the melting point is 41 to 44 °C.

In turn, `COC(=O)C(C)Oc1ccc(Oc2ccc(Br)cc2F)cc1` (stereo not given) gave a melting point of 62 to 64 °C.

`N#Cc1c(NC(=O)C2CCCCC2)sc(-c2ccccc2)c1C#N` gave a melting point of 208 to 212 °C.

`Cc1nc(-c2cc(C)c(OCCCc3cnc(C)s3)c(C)c2)no1` returned a melting point of 60 to 62 °C.

As for `CCOc1nc(NCc2ccncc2)nc(Nc2ccc3[nH]c(=O)[nH]c3c2)n1`, the melting point is 210 to 212 °C.

In the case of `CC(=O)Nc1ccc2c(c1)CC(=O)N2CCN1CCN(Cc2ccccc2)CC1`, the melting point lay in the range of 145 to 147 °C.

The molecule `CNC(=S)NS(=O)(=O)c1cc(CCNC(=O)/C=C/c2cccs2)ccc1OCc1ccccc1` gave a melting point of 94 °C.

`CCCCC(CC)CN1C(=O)C(=Cc2cc3sc(-c4ccc(N(c5ccccc5)c5ccccc5)cc4)cc3s2)C(C)=C(C#N)C1=O` (stereo not given) gave a melting point of 208 to 213 °C.

`Nc1ccc(C#Cc2ccc(C#Cc3ccccc3)c([N+](=O)[O-])c2)cc1`: the melting point lay within 175 to 177 °C.

With `CNC(=O)c1cc(C#N)cc(C)c1NC(=O)c1cc(Br)nn1-c1ccccc1Cl`, the melting point lay within 242 to 243 °C.

Regarding `N#Cc1ccc(C(F)(F)C23CCCN2C(=O)N(c2cc(Cl)cc(Cl)c2)C3=O)cc1` (stereo not given), the melting point stood at 66 °C.

For the molecule `CNc1nc(Nc2ccc(Cl)cc2F)ncc1N1CCNC1=O`, the melting point is 249 °C.

In the case of `CC(C)(C)c1cc(OCc2cccc(-c3nnn[nH]3)c2)cc(C(C)(C)C)c1O`, the melting point was 163 to 164 °C.

`CC(C)CC(NC(=O)OC(C)(C)C)C(=O)NCC(=O)NCC(=O)NC(C)C(=O)NCC(=O)NN` (stereo not given) (Boc-LGGAG-NHNH2; configuration not given here) registered a melting point of 174 to 176 °C.

In the case of `CCC[C@](CCO)(CCc1ccccc1)OCOc1ccc(-c2ccccc2)cc1`, the melting point is 49 to 53 °C.

Turning to `CC(C)c1ccc(C(=O)NC(C)c2sccc2Br)cc1` (stereo not given), the melting point came to 133 °C.

`CC1Cc2ccc(Br)cc2C(c2ccc([N+](=O)[O-])cc2)O1` (stereo not given): the melting point lay within 130 to 133 °C.

With `CCCc1nn(C)c2c(=O)[nH]c(Cc3ccc(O)cc3)nc12`, the melting point came out at 260 °C.

For `CC(=O)SCC(Cc1ccccc1)C(=O)Nc1ccc(C(=O)OCc2ccccc2)cc1` (stereo not given), the melting point lay in the range of 139 to 140 °C.

For the molecule `Nc1ccc(NCC(F)(F)F)c([N+](=O)[O-])c1`, the melting point was in the range of 104 to 106 °C.

Molecule `Nc1ncnc2c1nc(O)n2Cc1ccc(F)cc1` returned a melting point of 270 to 272 °C.

In turn, `CCOC(=O)C(=Cc1cccc(OC)c1OC)N=[N+]=[N-]` had a melting point below 50 °C.

For the molecule `CCOC(=O)C(=Cc1ccccc1)c1csc(N)n1`, the melting point worked out at 162 °C.
